The record followed here is ChEMBL document CHEMBL1136469, “Non-peptide alpha(v)beta(3) antagonists: identification of potent, chain-shortened RGD mimetics that incorporate a central pyrrolidinone constraint” (Bioorg Med Chem Lett, 2003).

Data set [1] in a line: in vivo. As to conditions: dog, po.
Description: Oral bioavailability in dog
The nature of data set [2]: physchem. As to conditions: octanol/water.
Description: Partition coefficient (logP)
Data set [3] can be described thus: in vivo. As to conditions: dog, plasma.
Description: Plasma clearance was measured in dog
In data set [4] the target is Integrin alpha-V/beta-3 (Homo sapiens, UniProt P05106+P06756).
Description: Displacement of [125I]-labeled nonpeptide from purified recombinant human alphaV-beta3 integrin
Data set [5] can be described thus: in vivo. As to conditions: dog.
Description: Half-life was measured in dog

SMILES strings stand for the structures.

Sequence of Integrin alpha-V/beta-3 (P05106 27-788 limits assumed): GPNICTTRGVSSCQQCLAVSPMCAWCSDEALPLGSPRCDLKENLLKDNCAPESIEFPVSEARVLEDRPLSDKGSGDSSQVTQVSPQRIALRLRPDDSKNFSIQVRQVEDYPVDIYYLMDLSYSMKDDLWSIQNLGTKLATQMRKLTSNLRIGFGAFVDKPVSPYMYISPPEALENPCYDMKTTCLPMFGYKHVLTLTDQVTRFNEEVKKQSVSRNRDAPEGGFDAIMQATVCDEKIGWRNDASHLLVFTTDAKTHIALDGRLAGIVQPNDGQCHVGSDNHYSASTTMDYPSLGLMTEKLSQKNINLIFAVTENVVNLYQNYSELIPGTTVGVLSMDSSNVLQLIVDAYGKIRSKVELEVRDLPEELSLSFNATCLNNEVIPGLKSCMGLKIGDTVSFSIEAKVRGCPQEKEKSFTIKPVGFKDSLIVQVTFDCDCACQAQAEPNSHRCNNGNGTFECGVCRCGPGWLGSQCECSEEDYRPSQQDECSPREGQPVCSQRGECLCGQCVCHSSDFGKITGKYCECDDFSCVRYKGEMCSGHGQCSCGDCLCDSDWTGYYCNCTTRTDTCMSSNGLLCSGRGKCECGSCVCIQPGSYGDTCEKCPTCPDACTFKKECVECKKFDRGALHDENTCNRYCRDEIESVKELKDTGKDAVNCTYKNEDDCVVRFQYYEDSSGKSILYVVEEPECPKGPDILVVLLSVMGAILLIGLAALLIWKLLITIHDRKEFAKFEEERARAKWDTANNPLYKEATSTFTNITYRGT
Sequence of Integrin alpha-V/beta-3 (P06756 31-889 limits assumed): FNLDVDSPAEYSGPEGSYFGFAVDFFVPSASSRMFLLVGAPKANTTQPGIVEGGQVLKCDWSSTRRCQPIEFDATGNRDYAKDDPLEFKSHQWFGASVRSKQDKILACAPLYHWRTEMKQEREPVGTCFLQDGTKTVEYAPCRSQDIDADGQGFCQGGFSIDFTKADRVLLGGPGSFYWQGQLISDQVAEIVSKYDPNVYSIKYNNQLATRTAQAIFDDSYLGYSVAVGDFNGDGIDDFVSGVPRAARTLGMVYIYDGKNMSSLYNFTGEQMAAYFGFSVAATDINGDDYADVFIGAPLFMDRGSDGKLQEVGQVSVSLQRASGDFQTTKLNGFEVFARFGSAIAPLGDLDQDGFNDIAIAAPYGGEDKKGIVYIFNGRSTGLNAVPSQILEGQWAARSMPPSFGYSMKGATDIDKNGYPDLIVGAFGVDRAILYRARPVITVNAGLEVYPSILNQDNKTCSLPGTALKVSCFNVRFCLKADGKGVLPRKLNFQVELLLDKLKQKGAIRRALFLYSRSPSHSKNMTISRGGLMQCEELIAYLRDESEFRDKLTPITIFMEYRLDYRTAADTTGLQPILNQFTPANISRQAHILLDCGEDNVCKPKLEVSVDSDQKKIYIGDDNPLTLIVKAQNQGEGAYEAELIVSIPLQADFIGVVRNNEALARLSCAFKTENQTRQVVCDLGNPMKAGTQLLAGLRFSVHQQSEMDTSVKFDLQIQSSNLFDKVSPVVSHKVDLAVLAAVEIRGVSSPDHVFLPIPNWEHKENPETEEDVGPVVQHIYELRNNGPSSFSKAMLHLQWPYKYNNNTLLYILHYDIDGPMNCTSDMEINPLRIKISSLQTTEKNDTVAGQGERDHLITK
Sequence of Integrin alpha-V/beta-3 (P06756 891-1048 limits assumed): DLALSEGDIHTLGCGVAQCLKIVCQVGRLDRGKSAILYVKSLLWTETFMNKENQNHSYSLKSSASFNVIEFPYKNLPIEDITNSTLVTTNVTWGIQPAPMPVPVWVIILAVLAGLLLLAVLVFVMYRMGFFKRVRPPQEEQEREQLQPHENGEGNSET

As usually defined, the bioavailability is dose-corrected exposure relative to a reference, in per cent. A higher bioavailability goes with much systemic uptake. Broadly, the logP is a log measure of how a compound divides between an organic and an aqueous phase. One may read the clearance as the rate of elimination divided by the concentration. One may read the IC50 as the concentration at which inhibition is half-maximal. Broadly, the half-life is how long it takes for the measured level to halve. Turning to `O=C(O)C[C@@H](c1ccc2c(c1)OCC2)N1CC[C@H](CCCc2ccc3c(n2)NCCC3)C1=O`, the bioavailability in data set [1] was 11.5%. The compound further gave a logP in data set [2] of -0.12. For the same compound, in data set [3], the clearance is 22.9 mL/min/kg. The midpoint of inhibition in data set [4], the IC50, lay at 0.22 nM. Besides, in data set [5], the half-life was 1.5 h.
As for `O=C(O)C[C@H](NC(=O)CCCCc1ccc2c(n1)NCCC2)c1cnc2ccccc2c1`, the logP in data set [2] amounted to 0.77.
Compound `O=C(O)C[C@@H](c1ccc2c(c1)OCC2)N1CC[C@@H](CCCc2ccc3c(n2)NCCC3)C1=O` had a bioavailability in data set [1] of 52%. Also, the logP in data set [2] is 0.88. In data set [3], the clearance amounted to 2.1 mL/min/kg. This compound also came in with an IC50 in data set [4] of 0.39 nM. Moreover, the half-life in data set [5] is 8 h.
